Source: ChEMBL document CHEMBL5303304, “EUbOPEN Chemogenomics Library - IncuCyte” (2023)
Values joined by “and” are separate entries in the source; they are usually repeats but may differ in a detail not shown here. Identical values can stand only once.

Tests used:
Format in all cases: toxicity, cell-based
[1] = test system: Fibroblast; test: Incucyte cell viability with human fibroblast; conditions: 10 µM, compound concentration 10 uM
[2] = test system: U2OS; test: Incucyte cell viability with U2OS; conditions: human, 10 µM, compound concentration 10 uM
[3] = test system: HEK-293T; test: Incucyte cell viability with HEK293T; conditions: human, 10 µM, compound concentration 10 uM
Note: unitless GR value; below 1 slowed growth and below 0 cell loss.

| Structure (SMILES) | Growth Rate ([1]; 6 h, replicate number 1) | Growth Rate ([1]; 6 h, replicate number 2) | Growth Rate ([1]; 12 h, replicate number 1) | Growth Rate ([1]; 12 h, replicate number 2) | Growth Rate ([1]; 18 h, replicate number 2) | Growth Rate ([1]; 24 h, replicate number 2) | Growth Rate ([2]; 6 h, replicate number 2) | Growth Rate ([2]; 12 h, replicate number 2) | Growth Rate ([3]; 18 h, replicate number 1) | Growth Rate ([3]; 18 h, replicate number 2) | Growth Rate ([3]; 24 h, replicate number 1) | Growth Rate ([3]; 24 h, replicate number 2) | Growth Rate ([1]; 18 h, replicate number 1) | Growth Rate ([1]; 24 h, replicate number 1) | Growth Rate ([2]; 24 h, replicate number 2) | Growth Rate ([2]; 6 h, replicate number 1) | Growth Rate ([2]; 18 h, replicate number 1) | Growth Rate ([1]; 0 h, replicate number 2) | Growth Rate ([2]; 24 h, replicate number 1) | other results |
| --- | --- | --- | --- | --- | --- | --- | --- | --- | --- | --- | --- | --- | --- | --- | --- | --- | --- | --- | --- | --- |
| Cl.O=C(c1ccc(-c2ccc(Cl)cc2)o1)N(Cc1ccccn1)c1ccc(N2CCNCC2)cc1 | -0.62 | -1 | -1 | -0.6 | -0.43 | -0.32 | 0.57 | 0.87 | 0.76 | 0.43 | 0.48 | 0.25 | – | – | – | – | – | – | – | Growth Rate ([2]; 0 h, replicate number 2): -0.97; Growth Rate ([3]; 12 h, replicate number 2): 0.52 |
| CN(C)Cc1cccc(NC(=C2C(=O)Nc3cc(C(=O)N(C)C)ccc32)c2ccccc2)c1 | 0.08 | – | 0.68 | – | – | – | 0.99 | 0.73 | – | – | – | 0.95 | 0.68 | 0.47 | 0.8 | – | – | – | – | Growth Rate ([2]; 18 h, replicate number 2): 0.82 |
| O=C(CCSCc1ccco1)NNC(=O)N1Cc2ccccc2Oc2ccc(Cl)cc21 | 0.64 | -0.43 | 0.82 | 0.45 | 0.53 | 0.72 | – | 0.92 | 0.93 | – | 0.96 | – | 0.92 | 0.8 | 0.92 | 0.95 | – | – | – | Growth Rate ([1]; 0 h, replicate number 1): -1 |
| CN(c1ccc(C(F)(F)F)cc1)S(=O)(=O)c1ccc(C(=O)Nc2nc(-c3ccccn3)cs2)cc1 | – | – | – | – | – | 0.82 | 0.76 | 0.65 | – | 0.84 | 0.82 | 0.76 | – | 0.92 | 1 | – | 0.94 | – | – | Growth Rate ([2]; 0 h, replicate number 1): -1 |
| COc1cc(-c2cc3ncccc3c(O[C@H](C)[C@H]3CNC(=O)C3)n2)cc(OC)c1OC.Cl | 0.62 | – | 0.89 | 0.61 and 0.94 | 0.86 | – | – | – | – | 0.97 | – | 0.86 | 0.88 | – | 0.94 | – | 0.92 | -0.01 | 0.78 | Growth Rate ([1]; 0 h, replicate number 1): -1; Growth Rate ([2]; 12 h, replicate number 1): 0.79 |
| COc1cc(Oc2nc(-c3ccc(NC(=O)C4CCOC4)cc3)nn3c(C)nc(C)c23)cc(OC)c1OC (stereo unspecified) | – | – | – | 0.75 | – | – | – | 0.94 | – | – | 0.96 | – | – | – | – | 0.98 | – | 0.03 | 0.87 | – |
| COc1cc2nc(C)nc(NC3(c4ccccc4)CC3)c2cc1OC | 0.99 | 0.66 | 0.99 | 0.7 | – | – | – | 0.97 | 0.87 | – | 0.93 | – | – | – | – | 0.52 | 0.94 | 0.11 | 0.86 | Growth Rate ([2]; 12 h, replicate number 1): 0.94 |
| COc1ccc(S(=O)(=O)N2CCOCC2)cc1Nc1ccc2c(n1)N(C1CCN(C)CC1)[C@H](C)C(=O)N2C | 0.47 | -0.45 | 0.73 | 0.26 | 0.48 | 0.41 | – | 0.86 | 0.97 | – | 0.66 | 0.62 | 0.88 | 0.86 | 0.72 | – | 0.83 | 0.55 | 0.45 | Growth Rate ([2]; 0 h, replicate number 2): 0.58; Growth Rate ([2]; 18 h, replicate number 2): 0.79 |
